Type in all cases: cell-based
For one experiment, the system named is Venturia inaequalis. Nature of the experiment: Spore germination test. The following applies: VI, 48 hours. Put shortly:
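Compound from acetone stock mixed into water agar at 40, 10, 2.5 and 1 ppm; plated quadrants inoculated with spore suspension in sterile water. Incubation 48 hours at 24° C, then percentage of germinated spores counted and converted to a germination rating.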

The test system of the next experiment is Cladosporium cucumerinum. The experiment can be described thus: Spore germination test. The following applies: CC, 48 hours. In outline:
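Compound in acetone mixed into water agar at 40, 10, 2.5 and 1 ppm; plates seeded with spore suspension and incubated 48 hours at 24 °C. Percentage germinated spores counted and converted into a germination rating.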

A further experiment concerns Phytophthora infestans. The following applies: PI, 48 hours.

Read-outs that look alike come from different tables or passages of the source.

As to `Cc1ccc(Oc2nsnc(Cl)c2=O)c(Br)c1` [Compound 57, 3-[(2-bromo-4-methyl)-phenoxy]-5-chloro-4H--1,2,6-thiadiazin-4-one], the “Spore Germination Rating” value in the experiment with Venturia inaequalis (1.0 ppm) is recorded as 2 (40-60); with Venturia inaequalis (2.5 ppm), 0 (0-10); in the experiment with Venturia inaequalis (10 ppm), 0 (0-10); in the experiment with Venturia inaequalis (40 ppm) it was 0 (0-10); in the experiment with Cladosporium cucumerinum (1.0 ppm), 3 (60-80); in the experiment on Cladosporium cucumerinum (2.5 ppm), 0 (0-10). The “Spore Germination Rating” value is 0 (0-10) with Cladosporium cucumerinum (10 ppm); 0 (0-10) with Cladosporium cucumerinum (40 ppm); 4 (80-100) in the experiment with Phytophthora infestans (1.0 ppm); 1 (10-40) with Phytophthora infestans (2.5 ppm); 0 (0-10) in the experiment on Phytophthora infestans (10 ppm); 0 (0-10) with Phytophthora infestans (40 ppm).
Consider `Cc1cc(Cl)c(Oc2nsnc(Cl)c2=O)cc1C` [Compound 58, 3-chloro-5-[(2-chloro-4,5-dimethyl)phenoxy]-4H--1,2,6-thiadiazin-4-one], for which the “Spore Germination Rating” value in the experiment on Venturia inaequalis (1.0 ppm) is listed as 2 (40-60); in the experiment with Venturia inaequalis (2.5 ppm), 1 (10-40); in the experiment on Venturia inaequalis (10 ppm) it was 0 (0-10); in the experiment on Venturia inaequalis (40 ppm) it was 0 (0-10); in the experiment on Cladosporium cucumerinum (1.0 ppm) it was 3 (60-80); in the experiment on Cladosporium cucumerinum (2.5 ppm), 0 (0-10). Besides, the “Spore Germination Rating” value is given as 0 (0-10) with Cladosporium cucumerinum (10 ppm); 0 (0-10) in the experiment on Cladosporium cucumerinum (40 ppm); 3 (60-80) in the experiment on Phytophthora infestans (1.0 ppm); 2 (40-60) in the experiment with Phytophthora infestans (2.5 ppm); 0 (0-10) in the experiment with Phytophthora infestans (10 ppm); 0 (0-10) with Phytophthora infestans (40 ppm).
In the case of `Cc1cc(Oc2nsnc(Cl)c2=O)cc(C)c1Cl` [Compound 59, 3-chloro-5-[(4-chloro-3,5-dimethyl)phenoxy]-4H--1,2,6-thiadiazin-4-one], the “Spore Germination Rating” value with Venturia inaequalis (1.0 ppm) was 1 (10-40); in the experiment with Venturia inaequalis (2.5 ppm) it was 1 (10-40); in the experiment with Venturia inaequalis (10 ppm) it was 0 (0-10); in the experiment with Venturia inaequalis (40 ppm) it was 1 (10-40); with Cladosporium cucumerinum (1.0 ppm), 1 (10-40); in the experiment on Cladosporium cucumerinum (2.5 ppm), 0 (0-10). In addition, the “Spore Germination Rating” value with Cladosporium cucumerinum (10 ppm) is recorded as 0 (0-10); in the experiment on Cladosporium cucumerinum (40 ppm) it was 0 (0-10); with Phytophthora infestans (1.0 ppm) it was 4 (80-100); in the experiment with Phytophthora infestans (2.5 ppm), 1 (10-40); in the experiment on Phytophthora infestans (10 ppm) it was 1 (10-40); with Phytophthora infestans (40 ppm), 0 (0-10).
Consider `Cc1cc(Oc2nsnc(Cl)c2=O)cc(C)c1Br` [Compound 60, 3-[(4-bromo-3,5-dimethyl)-phenoxy]-5-chloro-4H--1,2,6-thiadiazin-4-one], for which the “Spore Germination Rating” value with Venturia inaequalis (1.0 ppm) is listed as 2 (40-60); in the experiment with Venturia inaequalis (2.5 ppm) it was 1 (10-40); in the experiment with Venturia inaequalis (10 ppm), 0 (0-10); in the experiment on Venturia inaequalis (40 ppm), 0 (0-10); with Cladosporium cucumerinum (1.0 ppm), 0 (0-10); in the experiment with Cladosporium cucumerinum (2.5 ppm), 0 (0-10). The “Spore Germination Rating” value in the experiment with Cladosporium cucumerinum (10 ppm) is 0 (0-10); in the experiment on Cladosporium cucumerinum (40 ppm), 0 (0-10); with Phytophthora infestans (1.0 ppm) it was 4 (80-100); in the experiment with Phytophthora infestans (2.5 ppm), 2 (40-60); in the experiment with Phytophthora infestans (10 ppm), 1 (10-40); with Phytophthora infestans (40 ppm) it was 0 (0-10).

For the origin of these results see US4450269A, “Mono-5-substituted-3-chloro-4H-1,2,6-thiadiazin-4-one antifungal agents” (FMC Corporation, priority 1980, dated 1984).
